The values that follow come from patent publication US10590086B2, “Pharmaceutical compound” (IOmet Pharma Ltd., priority 2014, dated 2020).

Test [1] concerns the target T1, TDO (Homo sapiens, UniProt P48775). The experiment in a line: A172 kynurenine cell-based assay. Set-up: This assay utilised cancer cells which expressed either TDO or IDO; endogenous in cells; host or cells: A172 (human glioblastoma). The following applies: A172 human glioblastoma cells, 48 hours, read-out: A172 Kynurenine cell based assay pIC50 (converted). A digest of the protocol: (§1)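 Kynurenine in the culture supernatant was measured by absorbance at 490 nm after 5 minutes with Ehrlich's reagent. Cells had been exposed ±compound for 48 hours at 37 °C in phenol red-free RPMI, 10% FCS, 2 mM L-glutamine and 500 μM L-tryptophan. Seeding was 30,000/well for A172 (TDO) and 40,000/well for SKOV3 (IDO, induced with 500 ng/ml IFN-γ).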

For test [2], the target named is T2, IDO (Homo sapiens, UniProt P14902). As to the kind of experiment: hIDO biochemical coupled assay. The following applies: 45 μM L-tryptophan, read-out: hIDO biochemical assay pIC50 (converted).
T2 sequence (P14902 whole entry): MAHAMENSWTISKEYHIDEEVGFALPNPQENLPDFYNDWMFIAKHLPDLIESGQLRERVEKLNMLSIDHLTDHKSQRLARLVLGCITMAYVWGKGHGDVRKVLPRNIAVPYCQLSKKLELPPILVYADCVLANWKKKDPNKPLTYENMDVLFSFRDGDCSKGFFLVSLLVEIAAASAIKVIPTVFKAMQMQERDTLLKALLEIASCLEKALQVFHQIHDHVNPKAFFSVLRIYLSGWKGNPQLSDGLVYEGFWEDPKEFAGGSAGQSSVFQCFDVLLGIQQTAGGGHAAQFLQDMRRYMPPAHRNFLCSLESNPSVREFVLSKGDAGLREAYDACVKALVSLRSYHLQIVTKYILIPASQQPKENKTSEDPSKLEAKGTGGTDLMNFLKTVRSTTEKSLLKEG
Test [3] addresses T1, TDO. The experiment in a line: hTDO biochemical coupled assay. The note with it: 330 μM L-tryptophan, read-out: hTDO biochemical assay pIC50 (converted).
From the text: Two different assays were employed: 1. a cell-based assay for detecting the effect of test compounds on kynurenine production in two different cancer cell types. This assay utilised cancer cells which expressed either TDO or IDO and as such was used as a means of testing compound activity at these two enzymes in a cell-based context. 2. a TDO and IDO biochemical coupled assay which utilised recombinantly produced and purified TDO and IDO enzymes in combination with the enzyme formamidase. This coupled enzyme system allowed conversion of N-formylkynurenine produced by TDO or IDO activity to kynurenine which was then quantified by fluorescence following addition of Erhlich's Reagent The protocols for these are set out below.
Test [4] has as its target T2, IDO. The experiment in a line: SKOV3 kynurenine cell-based assay (IDO induced by IFN-γ). Set-up: IDO expression was induced in the SKOV3 cells by the addition of 500 ng/ml IFN-γ; endogenous in cells; host or cells: SKOV3 (human ovarian adenocarcinoma), induced with IFN-γ. The note with it: 48 hours, read-out: SKOV3 Kynurenine cell based assay pIC50 (converted). The gist of the method: as §1

[5] abbreviates: SKOV3 human ovarian adenocarcinoma cells, 500 ng/ml IFN-γ, 500 μM L-tryptophan.

The structures appear in SMILES notation.

T1 sequence (P48775 whole entry): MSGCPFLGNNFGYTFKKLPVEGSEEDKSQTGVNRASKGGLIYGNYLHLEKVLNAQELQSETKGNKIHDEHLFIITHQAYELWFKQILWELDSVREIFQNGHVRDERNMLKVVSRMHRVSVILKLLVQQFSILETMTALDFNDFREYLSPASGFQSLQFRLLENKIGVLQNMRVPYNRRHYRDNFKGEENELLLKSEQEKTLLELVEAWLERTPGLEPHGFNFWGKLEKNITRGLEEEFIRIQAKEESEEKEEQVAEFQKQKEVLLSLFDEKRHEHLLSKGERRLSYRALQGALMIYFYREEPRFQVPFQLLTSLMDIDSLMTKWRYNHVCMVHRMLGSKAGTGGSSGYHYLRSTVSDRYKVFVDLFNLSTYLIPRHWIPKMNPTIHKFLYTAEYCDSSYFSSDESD

On to `CC1(C)CN(c2cc(C(F)(F)F)cc3[nH]ncc23)CCN1S(C)(=O)=O` [Compound 78], for which the IC50 at TDO [1] (500 μM L-tryptophan) was below 3.16 µM; on IDO [2] (17 minutes, room temperature), 3.24 to 31.6 µM; on TDO [3] (17 minutes, room temperature), below 3.16 µM; at IDO [4] (setting [5]), below 3.16 µM.

For the molecule `CN1CC2(CCN(c3cc(Cl)cc4[nH]ncc34)CC2)CC1=O` [Compound 291], the IC50 at TDO [1] (500 μM L-tryptophan) was below 3.16 µM; on IDO [2] (17 minutes, room temperature), above 100 µM; at TDO [3] (17 minutes, room temperature), below 3.16 µM; at IDO [4] (setting [5]) it was 3.24 to 31.6 µM.

Consider `CS(=O)(=O)c1ccc(-c2cc(Cl)cc3[nH]ncc23)c(Cl)c1` [Compound 384], for which the IC50 at TDO [1] (500 μM L-tryptophan) is below 3.16 µM; at IDO [2] (17 minutes, room temperature), 3.24 to 31.6 µM; at TDO [3] (17 minutes, room temperature), below 3.16 µM; at IDO [4] (setting [5]), 3.24 to 31.6 µM.

Turning to `O=c1[nH]c2ccccc2n1C1CCN(c2cc(Cl)cc3[nH]ncc23)CC1` [Compound 354], the IC50 on TDO [1] (500 μM L-tryptophan) is below 3.16 µM; at IDO [2] (17 minutes, room temperature), above 100 µM; at TDO [3] (17 minutes, room temperature), below 3.16 µM; on IDO [4] (setting [5]), 3.24 to 31.6 µM.

As for `Cc1cc(S(C)(=O)=O)ccc1-c1cc(Cl)cc2[nH]ncc12` [Compound 268], the IC50 is below 3.16 µM on TDO [1] (500 μM L-tryptophan); 32.4 to 100 µM at IDO [2] (17 minutes, room temperature); below 3.16 µM on TDO [3] (17 minutes, room temperature); 3.24 to 31.6 µM on IDO [4] (setting [5]).

Take `OC(Cc1ccccc1)c1cc(Cl)cc2[nH]ncc12` (centres unmarked) [Compound 281]: the IC50 is below 3.16 µM at TDO [1] (500 μM L-tryptophan); 3.24 to 31.6 µM at IDO [2] (17 minutes, room temperature); below 3.16 µM at TDO [3] (17 minutes, room temperature); 3.24 to 31.6 µM on IDO [4] (setting [5]).

In the case of `Clc1cc(N2CCN(c3ccncc3)CC2)c2cn[nH]c2c1` [Compound 374], the IC50 at TDO [1] (500 μM L-tryptophan) was below 3.16 µM; at IDO [2] (17 minutes, room temperature) it was above 100 µM; at TDO [3] (17 minutes, room temperature), 3.24 to 31.6 µM; at IDO [4] (setting [5]) it was 32.4 to 100 µM.

In the case of `CS(=O)(=O)N1CCC(c2cc(Cl)cc3[nH]ncc23)CC1` [Compound 40, 6-chloro-4-(1-(methylsulfonyl)piperidin-4-yl)-1H-indazole], the IC50 on TDO [1] (500 μM L-tryptophan) was below 3.16 µM; on TDO [1], 0.0832 µM; at IDO [2] (17 minutes, room temperature), below 3.16 µM; at IDO [2], 2.34 µM; on TDO [3] (17 minutes, room temperature) it was below 3.16 µM; on TDO [3], 0.302 µM. Also, the IC50 at IDO [4] (SKOV3 cells, IDO induced by 500 ng/ml IFN-γ) was 8.32 µM; on IDO [4] (setting [5]) it was 3.24 to 31.6 µM.

As to `Clc1cc(N2CCc3[nH]ncc3C2)c2cn[nH]c2c1` [Compound 328], the IC50 at TDO [1] (500 μM L-tryptophan) is below 3.16 µM; at IDO [2] (17 minutes, room temperature) it was above 100 µM; at TDO [3] (17 minutes, room temperature) it was below 3.16 µM; at IDO [4] (setting [5]), 3.24 to 31.6 µM.

Turning to `CS(=O)(=O)N1CCN(c2cc(Cl)cc3[nH]ncc23)C2CCCCC21` (racemic) [Compound 341], the IC50 on TDO [1] (500 μM L-tryptophan) was 3.24 to 31.6 µM; at IDO [2] (17 minutes, room temperature), above 100 µM; at TDO [3] (17 minutes, room temperature) it was above 100 µM; on IDO [4] (setting [5]) it was 32.4 to 100 µM.

Take `CS(=O)(=O)N1C2COCC1CN(c1cc(Cl)cc3[nH]ncc13)C2` [Compound 314]: the IC50 on TDO [1] (500 μM L-tryptophan) was below 3.16 µM; at IDO [2] (17 minutes, room temperature) it was 32.4 to 100 µM; on TDO [3] (17 minutes, room temperature) it was below 3.16 µM; on IDO [4] (setting [5]), 32.4 to 100 µM.

For the molecule `CC(=O)N1CCN(c2cc(Cl)cc3c(N)noc23)CC1(C)C` [Compound 305], the IC50 on TDO [1] (500 μM L-tryptophan) was 3.24 to 31.6 µM; on IDO [2] (17 minutes, room temperature), above 100 µM; on TDO [3] (17 minutes, room temperature), 32.4 to 100 µM; at IDO [4] (setting [5]) it was 32.4 to 100 µM.

With `Clc1cc(N2CCC(c3cscn3)CC2)c2cn[nH]c2c1` [Compound 442], the IC50 is below 3.16 µM at TDO [1] (500 μM L-tryptophan); 3.24 to 31.6 µM on IDO [2] (17 minutes, room temperature); below 3.16 µM at TDO [3] (17 minutes, room temperature); above 100 µM at IDO [4] (setting [5]).

Regarding `Clc1cc(C2CCCCC2)c2cn[nH]c2c1` [Compound 353], the IC50 at TDO [1] (500 μM L-tryptophan) was below 3.16 µM; on IDO [2] (17 minutes, room temperature), above 100 µM; on TDO [3] (17 minutes, room temperature), below 3.16 µM; at IDO [4] (setting [5]) it was 32.4 to 100 µM.

On to `CC(=O)N1C2CCC1CN(c1cc(Cl)cc3[nH]ncc13)C2` [Compound 231], for which the IC50 at TDO [1] (500 μM L-tryptophan) was below 3.16 µM; at IDO [2] (17 minutes, room temperature) it was 3.24 to 31.6 µM; at TDO [3] (17 minutes, room temperature) it was below 3.16 µM; on IDO [4] (setting [5]), 3.24 to 31.6 µM.

For `CC(=O)N1CCN(c2cc(Cl)cc3c(N)noc23)CC1` [Compound 303], the IC50 on TDO [1] (500 μM L-tryptophan) is 3.24 to 31.6 µM; on IDO [2] (17 minutes, room temperature), above 100 µM; on TDO [3] (17 minutes, room temperature), above 100 µM; on IDO [4] (setting [5]) it was above 100 µM.
